Numbering of substitutions follows the chain as printed. Converted amounts (≈) assume the structure as drawn. Where two headings read alike, the source gives them in different places.
Columns and labels:
[1] = target: human protein disulfide isomerase (PDI) (Homo sapiens, UniProt P07237); test: PDI insulin reduction assay; format: biochemical
[2] = test system: M. tuberculosis JR1740 strain; format: cell-based; conditions: JR1740 ± ATc
[3] = target: T1, RnVKOR expressed in E. coli (Rattus norvegicus, UniProt Q6TEK4, DEL31-33); test: Agar β-Gal^dbs assay, E. coli expressing RnVKOR; format: cell-based; conditions: FSH250 strain (Figure 4)
T1 sequence (Q6TEK4 with tags, fused parts or gaps DEL31-33): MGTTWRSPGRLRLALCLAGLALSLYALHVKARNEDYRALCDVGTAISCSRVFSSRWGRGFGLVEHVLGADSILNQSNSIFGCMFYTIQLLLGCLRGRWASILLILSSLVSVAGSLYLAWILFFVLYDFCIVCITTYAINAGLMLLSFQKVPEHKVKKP

M. tuberculosis H37Rv = M. tuberculosis H37Rv growth inhibition; conditions: alamar blue assay, ±SD
MtVKOR = MtVKOR (Mycobacterium tuberculosis, UniProt I6X5W1); test: In vitro ubiquinone reduction assay with purified MtVKOR; format: biochemical, M. tuberculosis
[4] = test system: MtVKOR expressed in E. coli; format: cell-based, M. tuberculosis
[5] = target: T2, PaDsbB1 expressed in E. coli (Pseudomonas aeruginosa, UniProt Q02TM7); format: cell-based, P. aeruginosa; conditions: agar plates, HTS control
T2 sequence (Q02TM7 1-169): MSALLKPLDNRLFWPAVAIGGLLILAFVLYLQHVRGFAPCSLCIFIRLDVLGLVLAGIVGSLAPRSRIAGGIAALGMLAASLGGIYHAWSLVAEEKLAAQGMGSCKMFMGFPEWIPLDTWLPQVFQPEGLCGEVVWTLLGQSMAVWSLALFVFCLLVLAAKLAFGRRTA

[6] = test system: elastase (LasB) activity of P. aeruginosa wild type; test: Elastase in vivo assay, wild type P. aeruginosa; format: cell-based; conditions: Pseudomonas aeruginosa, 15 h, read-out: Elastase in vivo assay IC50, WT
PaDsbB1 (ΔdsbB2) = target: T3, PaDsbB1 (ΔdsbB2) (Pseudomonas aeruginosa, UniProt Q02TM7); test: Elastase in vivo assay, ΔdsbB2 mutant; format: cell-based, P. aeruginosa
T3 sequence (Q02TM7 1-169): T2 sequence (Q02TM7 1-169)

PaDsbB1 = target: T4, PaDsbB1 (Pseudomonas aeruginosa, UniProt Q02TM7, C154Y); test: In vitro ubiquinone reduction assay with purified PaDsbB1; format: biochemical, P. aeruginosa
T4 sequence (Q02TM7 1-169 C154Y): T2 sequence (Q02TM7 1-169) with C154Y

PaDsbB2 = target: T5, PaDsbB2 (Pseudomonas aeruginosa, UniProt Q02EA7, C17A/C53A); test: In vitro ubiquinone reduction assay with purified PaDsbB2; format: biochemical, P. aeruginosa
T5 sequence (Q02EA7 1-163 C17A/C53A): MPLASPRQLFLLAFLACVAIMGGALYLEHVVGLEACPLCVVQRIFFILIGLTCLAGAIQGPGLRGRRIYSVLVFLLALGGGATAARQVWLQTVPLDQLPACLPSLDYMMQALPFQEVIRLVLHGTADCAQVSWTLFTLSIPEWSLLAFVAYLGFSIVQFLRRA

EcDsbB = target: T6, EcDsbB (Escherichia coli, UniProt P0A6M2, C49V/C8A); test: In vitro ubiquinone reduction assay with purified EcDsbB; format: biochemical, E. coli
T6 sequence (P0A6M2 1-176 C8A/C49V): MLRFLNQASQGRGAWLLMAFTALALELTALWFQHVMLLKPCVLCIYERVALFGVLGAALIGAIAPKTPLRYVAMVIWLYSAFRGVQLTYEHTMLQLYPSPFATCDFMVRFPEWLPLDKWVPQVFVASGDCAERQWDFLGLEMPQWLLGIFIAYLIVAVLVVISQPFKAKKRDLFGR

[7] = read-out: PDI IC50, insulin reduction assay, Table 2, 95% CI in parenthesis
[8] = read-out: In vitro assay MtVKOR Ki, 1–100 μM Ubiquinone-1, ±SD

human protein disulfide isomerase (PDI), sequence (P07237 18-508): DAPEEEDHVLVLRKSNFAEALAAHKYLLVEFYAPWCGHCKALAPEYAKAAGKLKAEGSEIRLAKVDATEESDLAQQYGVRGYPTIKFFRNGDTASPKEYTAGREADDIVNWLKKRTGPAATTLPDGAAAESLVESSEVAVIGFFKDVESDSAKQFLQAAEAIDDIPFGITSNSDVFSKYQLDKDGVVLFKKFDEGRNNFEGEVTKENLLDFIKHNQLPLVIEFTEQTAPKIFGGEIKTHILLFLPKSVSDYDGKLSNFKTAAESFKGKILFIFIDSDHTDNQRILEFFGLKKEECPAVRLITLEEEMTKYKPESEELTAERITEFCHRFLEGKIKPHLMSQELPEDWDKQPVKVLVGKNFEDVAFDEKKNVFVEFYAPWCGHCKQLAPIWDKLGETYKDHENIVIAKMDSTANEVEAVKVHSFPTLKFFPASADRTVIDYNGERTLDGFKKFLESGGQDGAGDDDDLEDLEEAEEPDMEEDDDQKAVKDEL

For c1ccc(Nc2nc3nonc3nc2Nc2ccccc2)cc1 [MT7], the IC50 [1, 7] was over 100 µM, the “MIC in VKOR knockdown (induced) versus non-induced strain (in words)” value [2] was “lower MICs” and the “Inhibition of RnVKOR expressed in E. coli” value (“Inhibition of RnVKOR” below) [3] was “inhibited”. The “In vivo assay (MIC)” value (M. tuberculosis H37Rv) was 41 ± 0 µM.
For OC(CNCc1ccccc1)Cn1c2ccc(Cl)cc2c2cc(Cl)ccc21 (centres unmarked) [MT2], the Ki (MtVKOR; [8]) was 4 ± 0.3 µM, the IC50 [1, 7] was over 100 µM and the “MIC in VKOR knockdown (induced) versus non-induced strain (in words)” value [2] was “lower MICs”. The “Inhibition of RnVKOR” value [3] was “inhibited” and the “In vivo assay (MIC)” value (M. tuberculosis H37Rv) was 26.04 ± 9 µM.
O=C1c2ccccc2C(=O)C1c1ccc(Br)cc1 [Bromindione, reference compound] gave an IC50 (MtVKOR) of 5 ± 0.73 µM, a Ki (MtVKOR) of 1 ± 0.09 µM and an IC50 [1] of over 100 µM. The “Inhibition of MtVKOR in E. coli screening strain (control)” value ([4]; agar plates, HTS control) was “inhibits”, the “Inhibition of PaDsbB1 in E. coli screening strain (control)” value [5] was “but not PaDsbB1” and the “In vivo assay (MIC)” value (M. tuberculosis H37Rv) was 250 ± 0 µM.
For O=C(Nc1ccccc1)c1cc(Cl)ccc1O [MT1], the IC50 [1, 7] was over 100 µM, the “MIC in VKOR knockdown (induced) versus non-induced strain (in words)” value [2] was “lower MICs” and the “Inhibition of RnVKOR” value [3] was “inhibited”. For the same compound, the “In vivo assay (MIC)” value (M. tuberculosis H37Rv) was 50.5 ± 0 µM.
Work on Cn1c(=O)c([N+](=O)[O-])c(Cl)c2ccccc21 [PA3] yielded an IC50 [6] of 646 µM, an IC50 (PaDsbB1 (ΔdsbB2)) of 9 µM and an IC50 (PaDsbB1) of 6 ± 0.6 µM. The Ki (PaDsbB1) was 2.8 ± 0.2 µM, the IC50 (PaDsbB2) was 3 ± 0.11 µM and the Ki (PaDsbB2) was 7.5 ± 0.8 µM. For the same compound, the Ki (EcDsbB) was 13 ± 1.5 µM, the IC50 [1] was 98 µM and the “Inhibition of PDI activity (in words)” value ([1]; insulin reduction assay) was “inhibited”.
Nc1ncn([C@@H]2O[C@H](CO)[C@@H](O)[C@H]2O)c(=O)n1 [MT9] was tested, and the Ki (MtVKOR; [8]) was 2 ± 0.05 µM, the IC50 [1, 7] was over 100 µM and the “MIC against MtVKOR when expressed in E. coli (Figure 3)” value [4] was 0.44 µM (≈ 0.107 µg/mL). For the same compound, the “In vivo assay (MIC)” value (M. tuberculosis H37Rv) was over 979 ± 0 µM.
N#CC(C#N)=NNc1ccccc1 [PA2] showed an IC50 [6] of over 100 µM, an IC50 (PaDsbB1 (ΔdsbB2)) of over 100 µM and an IC50 (PaDsbB1) of 83 ± 17 µM. For the same compound, the IC50 (PaDsbB2) was 83 ± 13 µM, the IC50 (EcDsbB) was 37.5 ± 5 µM and the Ki (EcDsbB) was 30 ± 7 µM. For the same compound, the IC50 [1] was 98.3 µM and the “Inhibition of PDI activity (in words)” value ([1]; insulin reduction assay) was “inhibited”.
With O=c1c(Cl)c(Cl)cnn1Cc1ccccc1Cl [compound 12, reference compound] the IC50 [6] was 229 µM, the IC50 (PaDsbB1 (ΔdsbB2)) was 8.6 µM and the IC50 (PaDsbB1) was 4.1 ± 0.6 µM. It also gave a Ki (PaDsbB1) of 3 ± 0.2 µM, an IC50 (PaDsbB2) of 6 ± 1 µM and a Ki (PaDsbB2) of 4 ± 0.2 µM. It also gave an IC50 (EcDsbB) of 0.014 ± 0.0001 µM, a Ki (EcDsbB) of 0.005 ± 0.001 µM and an IC50 [1] of over 100 µM. The “Inhibition of PaDsbB1 in E. coli screening strain (control)” value [5] was “inhibits”.
NC(=O)c1nc(Cl)c(Cl)c(Cl)c1Cl [PA1] was tested, and the IC50 [6] was 280 µM, the IC50 (PaDsbB1 (ΔdsbB2)) was 121 µM and the IC50 (PaDsbB1) was 530 ± 60 µM. The IC50 (PaDsbB2) was 600 ± 50 µM, the IC50 (EcDsbB) was 150 ± 50 µM and the Ki (EcDsbB) was 100 ± 30 µM. The IC50 [1] was over 100 µM, the “Inhibition of PDI activity (in words)” value ([1]; insulin reduction assay) was “does not target” and the “Inhibition of RnVKOR” value [3] was “does not target”.

Reference: PMC6458069 (Molecular microbiology, 2019)
